From paper PMC8645336, “Benchmarking a highly selective USP30 inhibitor for enhancement of mitophagy and pexophagy” (Life Science Alliance, 2021)

Key:
Experiment in all cases: biochemical
Parameters in all cases: Ubiquigent DUB profiler selectivity panel, remaining enzyme activity as % of control
Conditions in all cases: read-out: % of control remaining
OTUD1 = molecular target: T1, OTUD1 (Homo sapiens, UniProt Q5VV17)
T1 sequence (Q5VV17 1-481): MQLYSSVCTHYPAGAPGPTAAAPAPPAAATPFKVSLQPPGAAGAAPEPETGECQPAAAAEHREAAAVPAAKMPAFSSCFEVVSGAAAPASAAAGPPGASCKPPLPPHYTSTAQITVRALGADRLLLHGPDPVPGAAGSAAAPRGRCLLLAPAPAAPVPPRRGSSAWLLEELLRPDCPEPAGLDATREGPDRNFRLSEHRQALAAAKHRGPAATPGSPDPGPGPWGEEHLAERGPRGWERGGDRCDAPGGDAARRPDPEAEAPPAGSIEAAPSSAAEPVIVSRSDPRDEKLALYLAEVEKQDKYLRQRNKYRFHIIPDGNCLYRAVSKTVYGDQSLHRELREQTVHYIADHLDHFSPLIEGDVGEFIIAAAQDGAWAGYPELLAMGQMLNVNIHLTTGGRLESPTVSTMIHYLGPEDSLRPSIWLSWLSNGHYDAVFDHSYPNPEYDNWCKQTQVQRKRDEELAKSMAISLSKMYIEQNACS
Method in brief: (§1)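 CMPD-39 selectivity was profiled at 1-100 μM across >40 DUBs. Cellular engagement used 2 h CMPD-39 pretreatment, then HA-Ub-PA probe for 10 min at 37°C, with USP30 band shift on immunoblot. TOMM20 ubiquitylation was blotted in YFP-PRKN hTERT-RPE1 cells after 1 h antimycin A/oligomycin A (1 μM each).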

[1] = molecular target: T2, USP14 (+Proteasome-VS@Kd) (Homo sapiens, UniProt P54578)
T2 construct: +Proteasome-VS@Kd
Method in brief: as §1

USP36 = molecular target: T3, USP36 (Homo sapiens, UniProt Q9P275)
T3 sequence (Q9P275 1-1123): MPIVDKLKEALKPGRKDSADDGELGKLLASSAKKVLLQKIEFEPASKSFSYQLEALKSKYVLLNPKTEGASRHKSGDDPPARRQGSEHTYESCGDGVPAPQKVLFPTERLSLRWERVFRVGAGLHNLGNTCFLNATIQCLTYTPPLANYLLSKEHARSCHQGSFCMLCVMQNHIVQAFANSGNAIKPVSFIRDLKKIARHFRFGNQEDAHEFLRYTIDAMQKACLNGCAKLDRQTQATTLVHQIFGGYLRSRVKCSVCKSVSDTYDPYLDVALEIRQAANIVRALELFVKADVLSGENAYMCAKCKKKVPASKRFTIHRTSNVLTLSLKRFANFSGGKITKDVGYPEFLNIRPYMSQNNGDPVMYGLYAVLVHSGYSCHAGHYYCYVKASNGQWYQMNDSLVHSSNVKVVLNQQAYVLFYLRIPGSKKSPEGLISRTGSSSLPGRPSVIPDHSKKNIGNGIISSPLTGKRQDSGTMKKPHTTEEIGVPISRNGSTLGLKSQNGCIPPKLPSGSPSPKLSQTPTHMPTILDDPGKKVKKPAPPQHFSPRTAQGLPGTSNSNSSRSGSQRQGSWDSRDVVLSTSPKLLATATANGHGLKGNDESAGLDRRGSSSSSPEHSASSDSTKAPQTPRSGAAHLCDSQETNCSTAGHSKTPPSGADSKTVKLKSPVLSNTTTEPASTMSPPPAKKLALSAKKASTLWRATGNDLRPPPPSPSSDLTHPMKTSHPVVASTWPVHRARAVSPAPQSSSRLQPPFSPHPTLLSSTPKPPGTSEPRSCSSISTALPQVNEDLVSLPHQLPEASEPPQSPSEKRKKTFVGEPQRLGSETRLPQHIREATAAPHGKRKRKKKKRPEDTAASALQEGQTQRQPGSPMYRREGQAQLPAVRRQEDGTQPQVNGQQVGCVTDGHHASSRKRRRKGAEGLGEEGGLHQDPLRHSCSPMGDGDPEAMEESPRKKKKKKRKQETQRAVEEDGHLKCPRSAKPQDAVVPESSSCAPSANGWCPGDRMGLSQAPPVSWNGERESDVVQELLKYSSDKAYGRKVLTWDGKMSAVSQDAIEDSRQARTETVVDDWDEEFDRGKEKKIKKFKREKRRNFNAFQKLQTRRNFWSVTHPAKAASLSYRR
Method in brief: as §1

T2 sequence (P54578 whole entry): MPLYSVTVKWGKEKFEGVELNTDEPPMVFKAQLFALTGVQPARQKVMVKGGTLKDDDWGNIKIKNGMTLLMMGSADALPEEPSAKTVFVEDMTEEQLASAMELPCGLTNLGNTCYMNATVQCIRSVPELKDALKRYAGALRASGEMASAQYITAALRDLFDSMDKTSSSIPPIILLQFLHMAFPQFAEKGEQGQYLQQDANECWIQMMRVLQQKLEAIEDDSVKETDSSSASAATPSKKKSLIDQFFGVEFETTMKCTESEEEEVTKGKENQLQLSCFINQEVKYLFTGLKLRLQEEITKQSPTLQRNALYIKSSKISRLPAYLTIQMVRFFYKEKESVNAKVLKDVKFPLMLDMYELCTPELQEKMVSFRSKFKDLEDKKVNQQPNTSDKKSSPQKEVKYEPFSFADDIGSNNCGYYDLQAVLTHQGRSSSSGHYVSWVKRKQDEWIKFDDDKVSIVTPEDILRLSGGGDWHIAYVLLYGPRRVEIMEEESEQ

CC(C)(C)NS(=O)(=O)c1ccc(NC(=O)[C@H](Cc2ccccc2)NC(=O)c2ccc(F)cc2)cc1 [compound 39, CMPD-39]
remaining activity at 1 µM (OTUD1): 99.9% | remaining activity at 10 µM (OTUD1): 93.4% | remaining activity at 100 µM (OTUD1): 98% | remaining activity at 1 µM [1]: 107% | remaining activity at 10 µM [1]: 100% | remaining activity at 100 µM [1]: 96.1% | remaining activity at 1 µM (USP36): 110% | remaining activity at 10 µM (USP36): 98.8% | remaining activity at 100 µM (USP36): 94.8%
